# Measurements taken from US20250296959A1, “B7-H3 TARGETING PEPTIDES AND CONSTRUCTS THEREOF” (Mariana Oncology Inc., priority 2024, published 2025).
# Starred links: 1 amine or outer side, 2 acyl side, 3 side chain; linkers in the order of their positions; H or OH if unused. Positions of bridges follow the written chain, without caps; N, C: chain ends. Non-standard residues stand in square brackets, D forms with d. Residues, ends and D or L forms follow the SMILES beside them. Groups on a side chain read outwards from the residue. *: point of attachment. Ala(1-CH2CO2H-4-piperidyl) = N[C@@H](CC1CCN(CC(=O)O)CC1)C(=O)O; Ala(piperidin-4-yl) = O=C([C@H](CC1CCN([*:3])CC1)N[*:1])[*:2]; DOTA = O=C(O)CN1CCN(CC(=O)O)CCN(CC(=O)*)CCN(CC(=O)O)CC1; Tyr(SO2F) = N[C@@H](Cc1ccc(OS(=O)(=O)F)cc1)C(=O)O; Trp(5-F) = N[C@@H](Cc1c[nH]c2ccc(F)cc12)C(=O)O; Trp(2-Me) = Cc1[nH]c2ccccc2c1C[C@H](N)C(=O)O; γGlu = O=C(O)[C@H](CCC(=O)[*:2])N[*:1]; Ala(4-THP) = N[C@@H](CC1CCOCC1)C(=O)O; Val(3-OH) = CC(C)(O)[C@H](N)C(=O)O; Trx = NC[C@H]1CC[C@H](C(=O)O)CC1; hCha = N[C@@H](CCC1CCCCC1)C(=O)O; Cit = NC(=O)NCCC[C@H](N)C(=O)O; PEG4 = NCCOCCOCCOCCOCCC(=O)O; Tle = CC(C)(C)[C@H](N)C(=O)O; hLeu = CC(C)CC[C@H](N)C(=O)O
# Target: T1, human 4lg B7-H3 (Homo sapiens, UniProt Q5ZPR3)
# T1 sequence (Q5ZPR3 29-534): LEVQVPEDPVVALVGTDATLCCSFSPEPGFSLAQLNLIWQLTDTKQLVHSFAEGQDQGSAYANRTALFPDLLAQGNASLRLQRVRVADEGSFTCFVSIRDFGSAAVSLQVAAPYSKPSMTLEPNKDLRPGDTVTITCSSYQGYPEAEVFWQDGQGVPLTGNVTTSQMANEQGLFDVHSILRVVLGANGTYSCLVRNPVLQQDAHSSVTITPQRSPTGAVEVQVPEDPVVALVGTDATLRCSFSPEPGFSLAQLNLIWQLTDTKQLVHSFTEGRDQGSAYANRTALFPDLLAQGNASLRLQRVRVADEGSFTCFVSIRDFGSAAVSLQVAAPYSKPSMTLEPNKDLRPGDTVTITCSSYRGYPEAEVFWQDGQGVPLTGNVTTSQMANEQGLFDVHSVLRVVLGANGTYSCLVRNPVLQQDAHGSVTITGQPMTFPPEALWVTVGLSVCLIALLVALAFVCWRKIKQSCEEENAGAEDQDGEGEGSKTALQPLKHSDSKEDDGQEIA
# Experiment: Affinity determination by surface plasmon resonance (SPR) to 4Ig B7-H3
# Conditions: not given
row,SMILES,Kd [nM]
1,"CC(=O)N[C@@H](CCC(C)C)C(=O)N[C@@H](Cc1ccc(OS(=O)(=O)F)cc1)C(=O)N[C@H]1CSSC[C@@H](C(=O)N[C@@H](Cc2c[nH]c3ccc(F)cc23)C(=O)N[C@@H](Cc2ccccc2)C(=O)N[C@H](C(=O)N[C@H](CCCCNC(=O)CN2CCN(CC(=O)O)CCN(CC(=O)O)CCN(CC(=O)O)CC2)C(=O)O)C(C)(C)O)NC(=O)[C@H](Cc2ccc(O)cc2)NC(=O)[C@H](C(C)C)NC(=O)[C@H](CC(=O)O)NC(=O)[C@H](CC2CCOCC2)NC(=O)[C@H](CC2CCNCC2)NC(=O)CNC(=O)[C@H](C(C)(C)C)NC1=O [compound 478, Ac-hLeu-FSY-C-Tbg-G-PipAla-ThpA-D-V-Y-C-5FW-F-hydroxyVal-dLys(DOTA)-COOH] (Ac-[hLeu][Tyr(SO2F)]C[Tle]G[Ala(piperidin-4-yl)][Ala(4-THP)]DVYC[Trp(5-F)]F[Val(3-OH)][dK](DOTA)-OH; disulfide 3-11)",10 to 100

# Same assay, conditions: SPR KD—37° C., 4Ig B7-H3; 37° C. flow cell temperature
row,SMILES,Kd [nM]
1,"CC(=O)N[C@@H](CCC(C)C)C(=O)N[C@@H](Cc1ccc(O)cc1)C(=O)N[C@H]1CSSC[C@@H](C(=O)N[C@@H](Cc2c[nH]c3ccc(F)cc23)C(=O)N[C@@H](Cc2ccccc2)C(=O)N[C@H](C(=O)N[C@H](CCCCNC(=O)CC[C@H](NC(=O)[C@H]2CC[C@H](CNC(=O)CN3CCN(CC(=O)O)CCN(CC(=O)O)CCN(CC(=O)O)CC3)CC2)C(=O)O)C(=O)O)C(C)(C)O)NC(=O)[C@H](Cc2ccc(O)cc2)NC(=O)[C@H](C(C)C)NC(=O)[C@H](CC(=O)O)NC(=O)[C@H](CC2CCOCC2)NC(=O)[C@H](CC2CCNCC2)NC(=O)CNC(=O)[C@H](C(C)(C)C)NC1=O [compound 481, Ac-hLeu-Y-C-Tbg-G-PipAla-ThpA-D-V-Y-C-5FW-F-hydroxyVal-dLys(gE-tranexamate-DOTA)-COOH] (Ac-[hLeu]YC[Tle]G[Ala(piperidin-4-yl)][Ala(4-THP)]DVYC[Trp(5-F)]F[Val(3-OH)][dK]([γGlu-Trx-DOTA])-OH; disulfide 3-11)",< 1
2,"CC(=O)N[C@@H](CCC(C)C)C(=O)N[C@@H](Cc1ccc(O)cc1)C(=O)N[C@H]1CSSC[C@@H](C(=O)N[C@@H](Cc2c[nH]c3ccc(F)cc23)C(=O)N[C@@H](Cc2ccccc2)C(=O)N[C@H](C(=O)N[C@H](CO)C(=O)O)C(C)(C)O)NC(=O)[C@H](Cc2ccc(O)cc2)NC(=O)[C@H](C(C)C)NC(=O)[C@H](CC(=O)O)NC(=O)[C@H](CC2CCN(C(=O)CCOCCOCCOCCOCCNC(=O)CN3CCN(CC(=O)O)CCN(CC(=O)O)CCN(CC(=O)O)CC3)CC2)NC(=O)[C@H](CC2CCNCC2)NC(=O)CNC(=O)[C@H](C(C)(C)C)NC1=O [compound 483, Ac-hLeu-Y-C-Tbg-G-PipAla-Pip(PEG4-DOTA)Ala-D-V-Y-C-5FW-F-hydroxyVal-dSer-COOH] (Ac-[hLeu]YC[Tle]G[Ala(piperidin-4-yl)][Ala(piperidin-4-yl)]([PEG4-DOTA])DVYC[Trp(5-F)]F[Val(3-OH)][dS]-OH; disulfide 3-11)",< 1
3,"CC(=O)N[C@@H](CCC(C)C)C(=O)N[C@@H](Cc1ccc(O)cc1)C(=O)N[C@H]1CSSC[C@@H](C(=O)N[C@@H](Cc2c[nH]c3ccc(F)cc23)C(=O)N[C@@H](Cc2ccccc2)C(=O)N[C@H](C(=O)N[C@H](CO)C(=O)O)C(C)(C)O)NC(=O)[C@H](Cc2ccc(O)cc2)NC(=O)[C@H](C(C)C)NC(=O)[C@H](CC(=O)O)NC(=O)[C@H](CC2CCN(C(=O)CCOCCOCCOCCOCCNC(=O)CN3CCN(CC(=O)O)CCN(CC(=O)O)CCN(CC(=O)O)CC3)CC2)NC(=O)[C@H](CC2CCOCC2)NC(=O)CNC(=O)[C@H](C(C)(C)C)NC1=O [compound 484, Ac-hLeu-Y-C-Tbg-G-ThpA-Pip(PEG4-DOTA)Ala-D-V-Y-C-5FW-F-hydroxyVal-dSer-COOH] (Ac-[hLeu]YC[Tle]G[Ala(4-THP)][Ala(piperidin-4-yl)]([PEG4-DOTA])DVYC[Trp(5-F)]F[Val(3-OH)][dS]-OH; disulfide 3-11)",< 1
4,"CC(=O)N[C@@H](CCC1CCCCC1)C(=O)N[C@@H](Cc1ccc(O)cc1)C(=O)N[C@H]1CSSC[C@@H](C(=O)N[C@@H](Cc2c[nH]c3ccc(F)cc23)C(=O)N[C@@H](Cc2ccccc2)C(=O)N[C@H](C(=O)N[C@H](C)C(=O)O)C(C)(C)O)NC(=O)[C@H](Cc2ccc(O)cc2)NC(=O)[C@H](C(C)C)NC(=O)[C@H](CC(=O)O)NC(=O)[C@H](CC2CCOCC2)NC(=O)[C@H](CC2CCN(C(=O)CC[C@H](NC(=O)CN3CCN(CC(=O)O)CCN(CC(=O)O)CCN(CC(=O)O)CC3)C(=O)O)CC2)NC(=O)CNC(=O)[C@H](C(C)(C)C)NC1=O [compound 486, Ac-hCha-Y-C-Tbg-G-Pip(gE-DOTA)Ala-ThpA-D-V-Y-C-5FW-F-hydroxyVal-dAla-COOH] (Ac-[hCha]YC[Tle]G[Ala(piperidin-4-yl)]([γGlu-DOTA])[Ala(4-THP)]DVYC[Trp(5-F)]F[Val(3-OH)][dA]-OH; disulfide 3-11)",< 1
5,"CC(=O)N[C@@H](CCC1CCCCC1)C(=O)N[C@@H](Cc1ccc(O)cc1)C(=O)N[C@H]1CSSC[C@@H](C(=O)N[C@@H](Cc2c[nH]c3ccc(F)cc23)C(=O)N[C@@H](Cc2ccccc2)C(=O)N[C@H](C(=O)N[C@H](C)C(=O)O)C(C)(C)O)NC(=O)[C@H](Cc2ccc(O)cc2)NC(=O)[C@H](C(C)C)NC(=O)[C@H](CC(=O)O)NC(=O)[C@H](CC2CCOCC2)NC(=O)[C@H](CC2CCN(C(=O)CC[C@H](NC(=O)CC[C@H](NC(=O)CN3CCN(CC(=O)O)CCN(CC(=O)O)CCN(CC(=O)O)CC3)C(=O)O)C(=O)O)CC2)NC(=O)CNC(=O)[C@H](C(C)(C)C)NC1=O [compound 487, Ac-hCha-Y-C-Tbg-G-Pip(gE-gE-DOTA)Ala-ThpA-D-V-Y-C-5FW-F-hydroxyVal-dAla-COOH] (Ac-[hCha]YC[Tle]G[Ala(piperidin-4-yl)]([γGlu-γGlu-DOTA])[Ala(4-THP)]DVYC[Trp(5-F)]F[Val(3-OH)][dA]-OH; disulfide 3-11)",< 1
6,"CC(=O)N[C@@H](CCC(C)C)C(=O)N[C@@H](Cc1ccc(O)cc1)C(=O)N[C@H]1CSSC[C@@H](C(=O)N[C@@H](Cc2c[nH]c3ccc(F)cc23)C(=O)N[C@@H](Cc2ccccc2)C(=O)N[C@H](C(=O)N[C@H](C)C(=O)O)C(C)(C)O)NC(=O)[C@H](Cc2ccc(O)cc2)NC(=O)[C@H](C(C)C)NC(=O)[C@H](CC(=O)O)NC(=O)[C@H](CC2CCN(C(=O)CCOCCOCCOCCOCCNC(=O)CN3CCN(CC(=O)O)CCN(CC(=O)O)CCN(CC(=O)O)CC3)CC2)NC(=O)[C@H](CC2CCN(CC(=O)O)CC2)NC(=O)CNC(=O)[C@H](C(C)(C)C)NC1=O [compound 488, Ac-hLeu-Y-C-Tbg-G-Pip(CH2COOH)Ala-Pip(PEG4-DOTA)Ala-D-V-Y-C-5FW-F-hydroxyVal-dAla-COOH] (Ac-[hLeu]YC[Tle]G[Ala(1-CH2CO2H-4-piperidyl)][Ala(piperidin-4-yl)]([PEG4-DOTA])DVYC[Trp(5-F)]F[Val(3-OH)][dA]-OH; disulfide 3-11)",< 1
7,"CC(=O)N[C@@H](CCC(C)C)C(=O)N[C@@H](Cc1ccc(O)cc1)C(=O)N[C@H]1CSSC[C@@H](C(=O)N[C@@H](Cc2c[nH]c3ccc(F)cc23)C(=O)N[C@@H](Cc2ccccc2)C(=O)N[C@H](C(=O)N[C@H](CO)C(=O)O)C(C)(C)O)NC(=O)[C@H](Cc2ccc(O)cc2)NC(=O)[C@H](C(C)C)NC(=O)[C@H](CC(=O)O)NC(=O)[C@H](CC2CCOCC2)NC(=O)[C@H](CC2CCN(C(=O)CCOCCOCCOCCOCCNC(=O)CN3CCN(CC(=O)O)CCN(CC(=O)O)CCN(CC(=O)O)CC3)CC2)NC(=O)CNC(=O)[C@H](C(C)(C)C)NC1=O [compound 490, Ac-hLeu-Y-C-Tbg-G-Pip(PEG4-DOTA)Ala-ThpA-D-V-Y-C-5FW-F-hydroxyVal-dSer-COOH] (Ac-[hLeu]YC[Tle]G[Ala(piperidin-4-yl)]([PEG4-DOTA])[Ala(4-THP)]DVYC[Trp(5-F)]F[Val(3-OH)][dS]-OH; disulfide 3-11)",< 1
8,"CC(=O)N[C@@H](CCC(C)C)C(=O)N[C@@H](Cc1ccc(O)cc1)C(=O)N[C@H]1CSSC[C@@H](C(=O)N[C@@H](Cc2c(C)[nH]c3ccccc23)C(=O)N[C@@H](Cc2ccccc2)C(=O)N[C@H](C(=O)N[C@H](CCCCNC(=O)CN2CCN(CC(=O)O)CCN(CC(=O)O)CCN(CC(=O)O)CC2)C(=O)O)C(C)(C)O)NC(=O)[C@H](Cc2ccc(O)cc2)NC(=O)[C@H](C(C)C)NC(=O)[C@H](CC(=O)O)NC(=O)[C@H](CC2CCOCC2)NC(=O)[C@H](CC2CCNCC2)NC(=O)CNC(=O)[C@H](C(C)(C)C)NC1=O [compound 492, Ac-hLeu-Y-C-Tbg-G-PipAla-ThpA-D-V-Y-C-2MeW-F-hydroxyVal-dLys(DOTA)-COOH] (Ac-[hLeu]YC[Tle]G[Ala(piperidin-4-yl)][Ala(4-THP)]DVYC[Trp(2-Me)]F[Val(3-OH)][dK](DOTA)-OH; disulfide 3-11)",< 1

# Same assay, conditions: read-out: SPR KD—37° C.; 4Ig B7-H3; 37° C. flow cell temperature
row,SMILES,Kd [nM]
1,"CC(=O)N[C@@H](CCC(C)C)C(=O)N[C@@H](Cc1ccc(O)cc1)C(=O)N[C@H]1CSSC[C@@H](C(=O)N[C@@H](Cc2c[nH]c3ccc(F)cc23)C(=O)N[C@@H](Cc2ccccc2)C(=O)N[C@H](C(=O)N[C@H](C)C(=O)O)C(C)(C)O)NC(=O)[C@H](Cc2ccc(O)cc2)NC(=O)[C@H](C(C)C)NC(=O)[C@H](CC(=O)O)NC(=O)[C@H](CC2CCN(C(=O)CCOCCOCCOCCOCCNC(=O)CN3CCN(CC(=O)O)CCN(CC(=O)O)CCN(CC(=O)O)CC3)CC2)NC(=O)[C@H](CCCNC(N)=O)NC(=O)CNC(=O)[C@H](C(C)(C)C)NC1=O [compound 489, Ac-hLeu-Y-C-Tbg-G-Cit-Pip(PEG4-DOTA)Ala-D-V-Y-C-5FW-F-hydroxyVal-dAla-COOH] (Ac-[hLeu]YC[Tle]G[Cit][Ala(piperidin-4-yl)]([PEG4-DOTA])DVYC[Trp(5-F)]F[Val(3-OH)][dA]-OH; disulfide 3-11)",< 1
